Data published in patent publication US20260167656A1, “PHOSPHORAMIDATE COMPOUNDS AND USES THEREOF” (ALLORION THERAPEUTICS INC, priority 2022, published 2026).

How the values were obtained:
[1] = system: non-small cell lung cancer cell line H460; experiment: In vitro human cancer cell line cytotoxicity (proliferation) assay in H460, CellTiter-Glo, 72 hours; type: cell-based; details: DMSO condition (no AKR1C3 inhibitor), read-out: CTG H460: Avg IC50 (nM) [Assay Condition: DMSO]
Outline: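 IC50s in nM come from CellTiter-Glo viability read after 72 h of compound exposure. Compounds went in from 10 mM DMSO stocks onto H460 cells, which had been plated at 3×10^3 per well and grown 24 h beforehand at 37 °C, 5% CO2.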

[2] = system: non-small cell lung cancer cell line H460; experiment: H460 proliferation assay in the presence of 3 uM ASP9521 (AKR1C3 specific inhibitor); type: cell-based, human; details: H460 cells, CellTiter-Glo, 72 hours, in the presence of 3 uM ASP9521 added 4 hours prior to compounds; read-out: CTG H460: Avg IC50 (nM) [Assay Condition: ASP9521]
Outline: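 AKR1C3 blocked with 3 uM ASP9521 given 4 h ahead of test compounds. H460 cells, plated 24 h earlier, were then treated for 72 h at 37 °C in 5% CO2. CellTiter-Glo luminescence gave viability.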

[3] = Homo sapiens, NCI-H460, 72 h, H460 cells
[4] = Homo sapiens, NCI-H460, H460 cells

SMILES | IC50 ([1]; H460 cells) [nM] | IC50 [2] [nM] | IC50 [1, 3] [nM] | IC50 [1, 4] [nM]
CC(OP(=O)(N1C[C@@H]1C)N1C[C@@H]1C)c1ccc([N+](=O)[O-])c(Oc2ccc(-c3ccccc3)cc2)c1 (some centres unmarked) [Example 219] | < 10 | 2750 |  | 
Cc1ccn(-c2cc(Oc3c([N+](=O)[O-])ccc4c3CC[C@@H]4OP(=O)(N3CC3)N3CC3)ccc2F)n1 [Example 439] |  | 2090 | < 10 | 
C[C@H](OP(=O)(N1CC1)N1CC1)c1cc2cc(Oc3ccc4c(c3)OC(F)(F)O4)c([N+](=O)[O-])cc2o1 [Example 551] |  | 2600 | < 10 | 
O=C1CCCN1c1cccc(Oc2c([N+](=O)[O-])ccc3c2CCC3OP(=O)(N2CC2)N2CC2)c1 (centres unmarked) [Example 111] |  | 1100 | < 10 | 
O=[N+]([O-])c1ccc2c(c1Oc1ccc(-c3cnn(C4CC4)c3)cc1)CCC2OP(=O)(N1CC1)N1CC1 (centres unmarked) [Example 79] | 10 to 50 | 1610 |  | 
O=C(c1cccc(Oc2cc3cc(COP(=O)(N4CC4)N4CC4)oc3cc2[N+](=O)[O-])c1)N1CCC(F)(F)C1 [Example 545] | < 10 | 970 |  | 
O=C(c1ccc(Oc2cc3cc(COP(=O)(N4CC4)N4CC4)oc3cc2[N+](=O)[O-])cc1)N1CCOCC1 [Example 231] |  | 278 | < 10 | 
Cn1nnc(-c2cc(Oc3c([N+](=O)[O-])ccc4c3CC[C@@H]4OP(=O)(N3CC3)N3CC3)ccc2F)n1 [Example 355] |  | 1130 | < 10 | 
O=[N+]([O-])c1ccc2c(c1Oc1ccc(O)c(-c3ccc(F)cn3)c1)CCC2OP(=O)(N1CC1)N1CC1 (centres unmarked) [Example 334] | < 10 | 824 |  | 
CC1(C)CN(c2ccc(Oc3c([N+](=O)[O-])ccc4c3CCC4OP(=O)(N3CC3)N3CC3)cc2)C(=O)O1 (centres unmarked) [Example 426] | < 10 | 638 |  | 
CC(OP(=O)(N1CC1)N1CC1)c1cc(Oc2ccc(C(=O)N(C)C)cc2)c([N+](=O)[O-])cc1Cl (centres unmarked) [Example 9] |  | 1720 | < 10 | 
Cn1cc(-c2ccc(Oc3c([N+](=O)[O-])ccc4c3CC[C@H]4OP(=O)(N3CC3)N3CC3)cc2)cn1 [Example 273] | < 10 | 1400 |  | 
O=[N+]([O-])c1ccc2c(c1Oc1ccc(O)c(-c3ccc(F)cn3)c1)CCC2OP(=O)(N1CC1)N1CC1 (centres unmarked) [Example 333] | < 10 | 1310 |  | 
N#Cc1ccc(-c2ccc(Oc3c([N+](=O)[O-])ccc4c3CCC4OP(=O)(N3CC3)N3CC3)cc2)nc1 (centres unmarked) [Example 288] | < 10 | 1940 |  | 
O=[N+]([O-])c1ccc2c(c1Oc1ccc(-c3ccncc3)cc1)CCC2OP(=O)(N1CC1)N1CC1 (centres unmarked) [Example 63] | 10 to 50 | 7430 |  | 
COc1cc(Oc2c([N+](=O)[O-])ccc3c2CC[C@@H]3OP(=O)(N2CC2)N2CC2)cc(-c2ccc(F)cn2)c1 [Example 353] |  | 1010 | < 10 | 
Cc1nsc(-c2cccc(Oc3c([N+](=O)[O-])ccc4c3CC[C@@H]4OP(=O)(N3CC3)N3CC3)c2)n1 [Example 292, (S)-4-(3-(3-methyl-1,2,4-thiadiazol-5-yl)phenoxy)-5-nitro-2,3-dihydro-1H-inden-1-yl di(aziridin-1-yl)phosphinate] |  | 1810 |  | < 10
O=[N+]([O-])c1ccc2c(c1Oc1cccc(C(F)(F)F)c1)CCC2OP(=O)(N1CC1)N1CC1 (centres unmarked) [Example 123] |  | 572 | < 10 | 
COc1ccc(Oc2c([N+](=O)[O-])ccc3c2CCC3OP(=O)(N2CC2)N2CC2)cc1-c1ccc(F)cn1 (centres unmarked) [Example 339] | < 10 | 1360 |  | 
CNC(=O)c1ccc(Oc2cc3c(cc2[N+](=O)[O-])CCC3OP(=O)(N2CC2)N2CC2)cc1 (single isomer, unassigned) [Example 150] |  | 297 | < 10 | 
Cc1cccc(-c2ccc(Oc3c([N+](=O)[O-])ccc4c3CC[C@H]4OP(=O)(N3CC3)N3CC3)cc2)n1 [Example 279] | < 10 | 1310 |  | 
O=C(c1ccc(Oc2cc3c(cc2[N+](=O)[O-])CCC3OP(=O)(N2CC2)N2CC2)cc1)N1CCOCC1 (centres unmarked) [Example 160] |  | 270 | < 10 | 
O=[N+]([O-])c1ccc2c(c1Oc1ccc(OC3COC3)cc1)CC[C@H]2OP(=O)(N1CC1)N1CC1 [Example 492] |  | 778 | < 10 | 
CC(OP(=O)(N1C[C@@H]1C)N1C[C@@H]1C)c1ccc([N+](=O)[O-])c(Oc2cccc(C(=O)N(C)C)c2)c1 (single isomer, unassigned) [Example 209] |  | 517 | < 10 | 
Cc1cc2cc(Oc3c([N+](=O)[O-])ccc4c3CCC4OP(=O)(N3CC3)N3CC3)ccc2n1C (centres unmarked) [Example 387] |  | 1860 | < 10 | 

SMILES | IC50 ([1]; H460 cells) [nM] | IC50 [2] [nM] | IC50 [1, 3] [nM] | IC50 [1, 4] [nM]
O=[N+]([O-])c1ccc2c(c1Oc1ccc(F)c(-c3ccc(F)cc3)c1)CC[C@@H]2OP(=O)(N1CC1)N1CC1 [Example 307] |  | 2360 |  | < 10
CSc1cccc(Oc2c([N+](=O)[O-])ccc3c2CC[C@H]3OP(=O)(N2CC2)N2CC2)c1 [Example 472] | < 10 | 583 |  | 
O=[N+]([O-])c1cc2oc(COP(=O)(N3CC3)N3CC3)cc2cc1Oc1ccc(-c2cccnc2)cc1 [Example 540] |  | 1830 | < 10 | 
O=[N+]([O-])c1ccc2c(c1Oc1ccc(-n3cc(F)cn3)cc1)CCC2OP(=O)(N1CC1)N1CC1 (racemic) [Example 419] | < 10 | 1180 |  | 
O=[N+]([O-])c1ccc2c(c1Oc1cccc(-c3ccccn3)c1)CC[C@H]2OP(=O)(N1CC1)N1CC1 [Example 296] |  | 976 | < 10 | 
O=[N+]([O-])c1cc2c(cc1Oc1ccc(-c3ccccc3)cc1)C(OP(=O)(N1CC1)N1CC1)CC2 (single isomer, unassigned) [Example 153] | < 10 | 477 |  | 
Cn1c(=O)n(C)c2cc(Oc3c([N+](=O)[O-])ccc4c3CCC4OP(=O)(N3CC3)N3CC3)ccc21 (centres unmarked) [Example 94] | 10 to 50 | 1450 |  | 
O=[N+]([O-])c1ccc2c(c1Oc1cccc(-n3cc(F)cn3)c1)CCC2OP(=O)(N1CC1)N1CC1 (centres unmarked) [Example 83] | < 10 | 1170 |  | 
O=[N+]([O-])c1ccc2c(c1Oc1ccc(F)c(-c3ccccn3)c1)CCC2OP(=O)(N1CC1)N1CC1 (centres unmarked) [Example 336] | < 10 | 1680 |  | 
O=[N+]([O-])c1ccc2c(c1Oc1cccc(OC(F)(F)F)c1)CCC2OP(=O)(N1CC1)N1CC1 (racemic) [Example 447] | < 10 | 547 |  | 
O=C(NC1CC1)c1ccc(Oc2c([N+](=O)[O-])ccc3c2CCC3OP(=O)(N2CC2)N2CC2)cc1 (centres unmarked) [Example 72] | 50 to 100 | 1390 |  | 
O=[N+]([O-])c1ccc2c(c1Oc1ccc(-c3ncc(F)cn3)c(F)c1)CC[C@H]2OP(=O)(N1CC1)N1CC1 [Example 269, (R)-4-(3-fluoro-4-(5-fluoropyrimidin-2-yl)phenoxy)-5-nitro-2,3-dihydro-1H-inden-1-yl di(aziridin-1-yl)phosphinate] |  | 761 | 10 to 50 | 
O=[N+]([O-])c1ccc2c(c1Oc1cccc(-c3nncs3)c1)CC[C@H]2OP(=O)(N1CC1)N1CC1 [Example 352] |  | 268 | < 10 | 
O=[N+]([O-])c1ccc2c(c1Oc1ccc(F)c(-c3ccc(F)cn3)c1)CCC2OP(=O)(N1CC1)N1CC1 (centres unmarked) [Example 328] | < 10 | 4230 |  | 
O=[N+]([O-])c1ccc2c(c1Oc1cccc(S(=O)(=O)C3CC3)c1)CC[C@H]2OP(=O)(N1CC1)N1CC1 [Example 456] | < 10 | 940 |  | 
O=[N+]([O-])c1ccc2c(c1Oc1ccc(F)c(-c3ccc(F)cc3)c1)CC[C@H]2OP(=O)(N1CC1)N1CC1 [Example 306] |  | 1990 |  | < 10
Cc1csc(-c2cccc(Oc3c([N+](=O)[O-])ccc4c3CC[C@@H]4OP(=O)(N3CC3)N3CC3)c2)n1 [Example 343] |  | 2300 | < 10 | 
O=[N+]([O-])c1cc2c(cc1Oc1ccc(-c3ccc(F)cc3)c(F)c1)C(OP(=O)(N1CC1)N1CC1)CC2 (centres unmarked) [Example 514] | < 10 | 993 |  | 
CNC(=O)c1cc(Oc2c([N+](=O)[O-])ccc3c2CC[C@@H]3OP(=O)(N2CC2)N2CC2)ccc1F [Example 260] | < 10 | 734 |  | 
O=[N+]([O-])c1cc2c(cc1Oc1ccc(-c3ccc(Cl)cc3)cc1)C(OP(=O)(N1CC1)N1CC1)CC2 (centres unmarked) [Example 182] | ≥ 100 | > 10000 |  | 
O=[N+]([O-])c1ccc2c(c1Oc1ccccc1)OCCC2OP(=O)(N1CC1)N1CC1 (centres unmarked) [Example 127, 7-nitro-8-phenoxy-3,4-dihydro-2H-1-benzopyran-4-yl bis(aziridin-1-yl)phosphinate] |  | 291 | 10 to 50 | 
O=[N+]([O-])c1ccc2c(c1Oc1ccc(F)c(OCC3CC3)c1)CC[C@H]2OP(=O)(N1CC1)N1CC1 [Example 488] |  | 857 | < 10 | 
CC(C)Oc1cccc(Oc2c([N+](=O)[O-])ccc3c2CC[C@@H]3OP(=O)(N2CC2)N2CC2)c1 [Example 452] | < 10 | 2240 |  | 
O=C1CCCN1c1cc(Oc2c([N+](=O)[O-])ccc3c2CCC3OP(=O)(N2CC2)N2CC2)ccc1F (centres unmarked) [Example 427] | < 10 | 756 |  | 
